Experimental data from ChEMBL document CHEMBL1799958, “Aminoalkylcarbamoylphosphonates reduce TNFα release from activated immune cells” (Bioorg Med Chem Lett, 2010).
The source made the active and inactive calls. The rule behind the calls is not given here.

Assays:
Splenocyte [1] = assay: Antiinflammatory activity against LPS-stimulated splenocytes isolated from thioglycolate-stimulated C57BL/6 mouse at 10 to 100 uM after 24 hrs by ELISA relative to control; format: functional, cell-based
[2] = Antiinflammatory activity against LPS-stimulated splenocytes cells isolated from thioglycolate-stimulated C57BL/6 mouse assessed as reduction of TNFalpha mRNA level at 100 to 200 uM after 24 hrs by RT-PCR; format: functional, Splenocyte
[3] = Toxicity in LPS-stimulated splenocytes cells isolated from thioglycolate-stimulated C57BL/6 mouse assessed as decrease in live cells at 100 uM after 24 hrs using propidium iodide-staining by FACS analysis; format: cell-based; conditions: splenocyte
RAW264.7 [4] = assay: Toxicity in LPS-stimulated […] assessed as decrease in live cells at 100 uM using propidium iodide-staining by FACS analysis; format: cell-based; conditions: raw264.7, 100 µM
RAW264.7 [5] = assay: Cytotoxicity against […] assessed as effect on cell viability at 100 uM after 2 hrs by MTT assay; format: cell-based; conditions: raw264.7, 2 h
[6] = Toxicity in LPS-stimulated splenocytes cells isolated from thioglycolate-stimulated C57BL/6 mouse assessed as decrease in live cells at 100 uM after 48 hrs using propidium iodide-staining by FACS analysis; format: cell-based; conditions: splenocyte
RAW264.7 [7] = assay: Antiinflammatory activity against LPS-stimulated […] at 100 uM after 24 hrs by ELISA relative to control; format: functional; conditions: RAW264.7, 24 h
[8] = molecular target: Disintegrin and metalloproteinase domain-containing protein 17 (Homo sapiens) (UniProt P78536); assay: Inhibition of recombinant TACE using Mca-P-L-A-Q-A-V-Dpa-R-S-S-S-R-NH2 as substrate at 1 to 100 uM after 3 hrs by fluorescence assay
[9] = Cytotoxicity against splenocytes isolated from thioglycolate-stimulated C57BL/6 mouse at 10 to 100 uM after 2 hrs by MTT assay; format: cell-based; conditions: splenocyte
[10] = Cytotoxicity against LPS-stimulated splenocytes isolated from thioglycolate-stimulated C57BL/6 mouse assessed as alterations in forward and side scattering distribution for splenocytes using propidium iodide-staining after 48 hrs by FACS analysis; format: cell-based; conditions: splenocyte
[11] = Cytotoxicity against LPS-stimulated splenocytes isolated from thioglycolate-stimulated C57BL/6 mouse assessed as alterations in forward and side scattering distribution for splenocytes using propidium iodide-staining after 24 hrs by FACS analysis; format: cell-based; conditions: splenocyte
Splenocyte [12] = assay: Antiinflammatory activity against LPS-stimulated splenocytes isolated from thioglycolate-stimulated C57BL/6 mouse at 10 uM after 24 hrs by ELISA relative to control; format: functional, cell-based
[13] = Cytotoxicity against splenocytes isolated from thioglycolate-stimulated C57BL/6 mouse at 10 uM after 2 hrs by MTT assay; format: cell-based; conditions: splenocyte
[14] = Toxicity in LPS-stimulated splenocytes isolated from thioglycolate-stimulated C57BL/6 mouse assessed as decrease in live cells at 10 uM after 48 hrs using propidium iodide-staining by FACS analysis; format: cell-based; conditions: splenocyte
RAW264.7 [15] = assay: Antiinflammatory activity against LPS-stimulated […] at 10 uM after 24 hrs by ELISA relative to control; format: functional; conditions: RAW264.7, 24 h
RAW264.7 [16] = assay: Cytotoxicity against […] assessed as effect on cell viability at 10 uM after 2 hrs by MTT assay; format: cell-based; conditions: raw264.7, 2 h
[17] = Toxicity in LPS-stimulated splenocytes isolated from thioglycolate-stimulated C57BL/6 mouse assessed as decrease in live cells at 10 uM after 24 hrs using propidium iodide-staining by FACS analysis; format: cell-based; conditions: splenocyte

Sequence of Disintegrin and metalloproteinase domain-containing protein 17 (Homo sapiens) (P78536 whole entry, the tested form may be a part): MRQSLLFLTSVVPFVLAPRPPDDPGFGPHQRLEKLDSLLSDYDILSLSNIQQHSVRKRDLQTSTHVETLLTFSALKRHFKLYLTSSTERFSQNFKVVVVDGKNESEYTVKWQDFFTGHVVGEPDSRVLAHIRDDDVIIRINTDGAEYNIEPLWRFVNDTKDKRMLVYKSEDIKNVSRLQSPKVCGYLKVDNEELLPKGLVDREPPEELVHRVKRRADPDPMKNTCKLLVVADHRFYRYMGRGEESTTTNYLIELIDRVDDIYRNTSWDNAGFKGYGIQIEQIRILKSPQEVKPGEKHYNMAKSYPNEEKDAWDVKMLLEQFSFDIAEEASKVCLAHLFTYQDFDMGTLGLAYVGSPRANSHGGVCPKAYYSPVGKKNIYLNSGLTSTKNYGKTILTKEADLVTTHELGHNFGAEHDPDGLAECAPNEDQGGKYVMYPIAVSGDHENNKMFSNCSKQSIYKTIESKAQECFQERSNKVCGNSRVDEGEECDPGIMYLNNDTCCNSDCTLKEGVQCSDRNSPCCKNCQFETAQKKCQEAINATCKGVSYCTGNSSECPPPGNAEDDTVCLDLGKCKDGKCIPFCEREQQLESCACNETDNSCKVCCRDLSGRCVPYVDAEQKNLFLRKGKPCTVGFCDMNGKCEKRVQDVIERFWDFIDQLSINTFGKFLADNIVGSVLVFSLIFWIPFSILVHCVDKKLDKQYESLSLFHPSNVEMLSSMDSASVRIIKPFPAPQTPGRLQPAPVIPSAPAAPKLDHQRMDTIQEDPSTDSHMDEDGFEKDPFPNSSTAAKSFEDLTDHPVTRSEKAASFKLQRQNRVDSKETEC

SMILES | inhibition (Splenocyte [1]) | inhibition (INH) [2] | Activity [3] | Activity (RAW264.7 [4]) | Activity (RAW264.7 [5]) | Activity [6] | inhibition at 100 µM (RAW264.7 [7]) | inhibition [8] | Activity [9] | Activity [10] | Activity [11] | inhibition (Splenocyte [12]) | Activity [13] | Activity [14] | inhibition at 10 µM (RAW264.7 [15]) | Activity (RAW264.7 [16]) | Activity [17]
O=C(NCCN1CCCCC1)P(=O)(O)O | Active | 30% | Non-toxic | Non-toxic | Non-toxic | Non-toxic | 60% | Active | Non-toxic | Non-toxic | Non-toxic |  |  |  |  |  | 
O=C(NCCN1CCCC1)P(=O)(O)O | Active | 30% | Non-toxic | Non-toxic | Non-toxic | Non-toxic | 60% | inactive | Non-toxic | Non-toxic | Non-toxic | Active |  |  |  |  | 
N[C@H]1CCCC[C@H]1NC(=O)P(=O)(O)O (relative stereo) | Active | 30% | Non-toxic | Non-toxic | Non-toxic | Non-toxic | 60% | inactive | Non-toxic | Non-toxic | Non-toxic |  |  |  |  |  | 
CCCC1O[C@@H]2C[C@H]3[C@@H]4CCC5=CC(=O)C=C[C@]5(C)[C@H]4[C@@H](O)C[C@]3(C)[C@]2(C(=O)CO)O1 (stereo not given in full) [BUDESONIDE] |  |  |  |  |  |  |  |  |  |  |  | Active | Non-toxic | Toxic | 60% | Non-toxic | Toxic
